Results as given in PubChem BioAssay AID1259408 (Genetic Toxicology Data Bank (GENE-TOX), 2018).
Activity calls are given as the source filed them. The rule behind the calls is not given here.

System: GENE-TOX genotoxicity assays, various organisms and cells
Assay: GENE-TOX mutagenicity studies
Conditions: for call: Assay Type: In vivo carcinogenicity studies
[1] = Species/Cell Type: Nonhuman, Assay Type: Sister-chromatid exchange (SCE) in vitro, Assay Code: SC2+, Evaluation Type: Evaluation B (Post-1980)
[2] = Species/Cell Type: Salmonella typhimurium (one or more of the five standard strains: TA98, TA100, TA1535, TA1537, and TA1538), Assay Type: Histidine reverse gene mutation, Ames assay, Assay Code: SALT, Evaluation Type: Evaluation A (Pre-1980)
[3] = Species/Cell Type: Mammalian polychromatic erythrocytes, Assay Type: Micronucleus test, chromosome aberrations, Assay Code: MNTT, Evaluation Type: Evaluation B (Post-1980)
[4] = Species/Cell Type: Nonhuman, Assay Code: CCG+, Evaluation Type: Evaluation A (Pre-1980)
[5] = Species/Cell Type: Nonhuman, Assay Type: Sister-chromatid exchange (SCE) in vitro, Assay Code: SC2+D, Dose Response: With dose response, Evaluation Type: Evaluation B (Post-1980)
[6] = Species/Cell Type: Salmonella typhimurium (one or more of the five standard strains: TA98, TA100, TA1535, TA1537, and TA1538), Assay Type: Histidine reverse gene mutation, Ames assay, Assay Code: SAL+, Evaluation Type: Evaluation A (Pre-1980)
[7] = Species/Cell Type: Escherichia coli polA (W3119 vs P3478), Assay Type: Rec-assay, DNA effects (bacterial DNA repair), Assay Code: RE1+, Evaluation Type: Evaluation A (Pre-1980)
[8] = Species/Cell Type: Saccharomyces cerevisiae, Assay Type: Mitotic recombination or gene conversion, Assay Code: YEH-, Evaluation Type: Evaluation A (Pre-1980)
[9] = Species/Cell Type: Drosophila melanogaster, Assay Type: Sex-linked recessive lethal gene mutation, Assay Code: SRL+, Evaluation Type: Evaluation A (Pre-1980)
[10] = Species/Cell Type: Nonhuman, Assay Code: CCGT, Evaluation Type: Evaluation A (Pre-1980)
[11] = Species/Cell Type: Escherichia coli polA (W3119 vs P3478), Assay Type: Rec-assay, DNA effects (bacterial DNA repair), Assay Code: RE1-, Evaluation Type: Evaluation A (Pre-1980)
[12] = Species/Cell Type: Salmonella typhimurium (one or more of the five standard strains: TA98, TA100, TA1535, TA1537, and TA1538), Assay Type: Histidine reverse gene mutation, Ames assay, Assay Code: SAL+*, Activation: With metabolic activation, Evaluation Type: Evaluation A (Pre-1980)
[13] = Species/Cell Type: Chinese hamster lung (V79) cells, Assay Type: Forward gene mutation at the HPRT or ouabain locus, Assay Code: V79+, Evaluation Type: Evaluation A (Pre-1980)

Compound: O=[As](O)(O)O
- mutagenic call (Species/Cell Type: Bacillus subtilis (H17 vs M45), Assay Type: Rec-assay, spot test, DNA effects (bacterial DNA repair), Assay Code: REW+, Evaluation Type: Evaluation A (Pre-1980)): active; positive
- mutagenic call (Species/Cell Type: Human lymphocytes, Assay Type: Sister-chromatid exchange (SCE) in vitro, Assay Code: SCL+, Evaluation Type: Evaluation B (Post-1980)): active; positive
- mutagenic call (Species/Cell Type: Human, Assay Type: Sister-chromatid exchange (SCE) in vitro, Assay Code: SC1+, Evaluation Type: Evaluation B (Post-1980)): active; positive
- mutagenic call [1]: active; positive
- mutagenic call (Species/Cell Type: Syrian hamster embryo (SHE) cells, Assay Type: Cell transformation, clonal assay, Assay Code: CTC+, Evaluation Type: Evaluation A (Pre-1980)): active; positive

Compound: O=C1c2cccc(O)c2C(=O)c2c(NCCNCCO)ccc(NCCNCCO)c21
- mutagenic call [1]: active; positive

Compound: Cc1cc(N=Nc2c(O)ccc3ccccc23)c(S(=O)(=O)O)cc1Cl
- mutagenic call [2]: no conclusion

Compound: CNc1ccc(N(CCO)CCO)cc1[N+](=O)[O-]
- mutagenic call [3]: no conclusion
- call [4]: active; positive
- mutagenic call [5]: active; positive

Compound: C#CC(OC(=O)NC1CCCCC1)(c1ccccc1)c1ccc(C)c(C)c1 (stereo unspecified)
- mutagenic call (Species/Cell Type: Human diploid fibroblasts, Assay Type: Unscheduled DNA synthesis (UDS) in vitro, DNA effects, Assay Code: UDH+, Evaluation Type: Evaluation A (Pre-1980)): active; positive
- mutagenic call [6]: active; positive

Compound: Cc1c2ccncc2c(C)c2c1[nH]c1ccccc12
- mutagenic call (Species/Cell Type: Chinese hamster ovary (CHO) cells, Assay Type: Forward gene mutation at the HPRT locus, Assay Code: CHO+, Evaluation Type: Evaluation B (Post-1980)): active; positive
- mutagenic call [1]: active; positive

Compound: CCN(CC)CCNc1ccc(COC(=O)c2ccco2)c2sc3ccccc3c(=O)c12
- mutagenic call [6]: active; positive

Compound: O=S1(=O)OC(c2cc(Br)c(O)c(Br)c2)(c2cc(Br)c(O)c(Br)c2)c2ccccc21
- mutagenic call [2]: no conclusion

Compound: CCN(CC)CCCC(C)Nc1ccnc2cc(Cl)ccc12 (stereo unspecified)
- mutagenic call [7]: active; positive
- mutagenic call (Species/Cell Type: Mammalian cell culture, nonhuman, Assay Type: Micronucleus test in vitro, chromosome aberrations, Assay Code: MN&+, Evaluation Type: Evaluation A (Pre-1980)): active; positive

Compound: Oc1ccc2cccnc2c1
- mutagenic call (Species/Cell Type: Salmonella typhimurium (one or more of the five standard strains: TA98, TA100, TA1535, TA1537, and TA1538), Assay Type: Histidine reverse gene mutation, Ames assay, Assay Code: SAL-, Evaluation Type: Evaluation A (Pre-1980)): inactive; negative

Compound: CNC(C)C1CCC(N)C(OC2C(N)CC(N)C(OC3OCC(C)(O)C(NC)C3O)C2O)O1 (stereo unspecified)
- mutagenic call [8]: inactive; negative

Compound: ClN1CC1
- mutagenic call (Species/Cell Type: Schizosaccharomyces pombe, Assay Type: Reverse gene mutation, Assay Code: YEZ+, Evaluation Type: Evaluation A (Pre-1980)): active; positive

Compound: NS(=O)(=O)c1ccc(C(=O)O)cc1
- mutagenic call [3]: no conclusion

Compound: CN(C)N=Nc1ccc(Br)cc1
- mutagenic call [9]: active; positive
- mutagenic call (Species/Cell Type: Mammalian polychromatic erythrocytes, Assay Type: Micronucleus test, chromosome aberrations, Assay Code: MNT+, Evaluation Type: Evaluation A (Pre-1980)): active; positive
- mutagenic call (Species/Cell Type: Saccharomyces cerevisiae, Assay Type: Mitotic recombination or gene conversion, Assay Code: YEC+, Evaluation Type: Evaluation A (Pre-1980)): active; positive

Compound: Oc1cccc2cc3ccc4cccc5ccc(c12)c3c45
- call [10]: no conclusion
- mutagenic call [2]: no conclusion

Compound: C/C(=N\O)c1ccc([N+](=O)[O-])s1
- mutagenic call [2]: no conclusion

Compound: N=c1ccn(O)c2ccccc12
- mutagenic call [11]: inactive; negative
- mutagenic call (Species/Cell Type: Nonhuman, Assay Type: Chromosome aberrations in vitro, Assay Code: CY&+D, Dose Response: With dose response, Evaluation Type: Evaluation A (Pre-1980)): active; positive
- call [10]: no conclusion
- mutagenic call (Species/Cell Type: Nonhuman, Assay Type: Sister-chromatid exchange (SCE) in vitro, Assay Code: SC2+D, Dose Response: With dose response, Evaluation Type: Evaluation A (Pre-1980)): active; positive

Compound: OCc1ccccc1
- mutagenic call [11]: inactive; negative

Compound: CCC[C@@H]1C[C@@H](C(=O)N[C@@H]([C@H]2O[C@H](SC)[C@H](O)[C@@H](O)[C@H]2O)[C@@H](C)O)N(C)C1
- mutagenic call (Species/Cell Type: Bacillus subtilis (H17 vs M45T), Assay Type: Rec-assay, spot test, DNA effects (bacterial DNA repair), Assay Code: REXT, Evaluation Type: Evaluation A (Pre-1980)): no conclusion

Compound: O=C(O)C(F)(F)F
- mutagenic call [2]: no conclusion

Compound: c1ccc2c(c1)ccc1ncccc12
- mutagenic call [12]: active; positive

Compound: N#Cc1cc(I)c(O)c([N+](=O)[O-])c1
- mutagenic call [3]: no conclusion

Compound: CCC(=O)N(C)N=O
- mutagenic call (Species/Cell Type: Saccharomyces cerevisiae, Assay Type: Reverse gene mutation, Assay Code: YER+, Evaluation Type: Evaluation A (Pre-1980)): active; positive

Compound: C[C@]1(O)CC[C@H]2[C@@H]3CCC4=CC(=O)CC[C@]4(C)[C@@]3(F)[C@@H](O)C[C@@]21C
- mutagenic call (Species/Cell Type: Human, Sex: Male, Assay Type: Sperm morphology, Assay Code: SPHT, Evaluation Type: Evaluation A (Pre-1980)): no conclusion

Compound: Cc1ccc2cc3c(ccc4ccccc43)c3c2c1C(O)C3 (stereo unspecified)
- mutagenic call [13]: active; positive
- call (Species/Cell Type: Nonhuman, Assay Code: CCG+L, Evaluation Type: Evaluation A (Pre-1980)): active; positive
- mutagenic call [2]: no conclusion

Compound: CCn1cc(C(=O)O)c(=O)c2ccc(C)nc21
- mutagenic call (Species/Cell Type: Bacillus subtilis (H17 vs M45T), Assay Type: Rec-assay, spot test, DNA effects (bacterial DNA repair), Assay Code: REX+, Evaluation Type: Evaluation A (Pre-1980)): active; positive
- mutagenic call [9]: active; positive
- mutagenic call [7]: active; positive
- mutagenic call (Species/Cell Type: Human lymphocytes, Assay Type: Sister-chromatid exchange (SCE) in vivo, Assay Code: SCY+, Evaluation Type: Evaluation B (Post-1980)): active; positive

Compound: CCOC(=O)CC(SP(=O)(OC)OC)C(=O)OCC (stereo unspecified)
- call (Species/Cell Type: Nonhuman, Assay Code: CCG-, Evaluation Type: Evaluation A (Pre-1980)): inactive; negative
- mutagenic call [5]: active; positive

Compound: c1ccc2c(c1)c1cccc3ccc4cccc2c4c31
- mutagenic call (Species/Cell Type: Chinese hamster lung (V79) cells, Assay Type: Forward gene mutation at the HPRT or ouabain locus, Assay Code: V79-, Evaluation Type: Evaluation A (Pre-1980)): inactive; negative
- mutagenic call (Species/Cell Type: Escherichia coli polA (W3110 vs P3478), Assay Type: Rec-assay, DNA effects (bacterial DNA repair), Assay Code: RE2-, Evaluation Type: Evaluation A (Pre-1980)): inactive; negative
- mutagenic call (Species/Cell Type: Escherichia coli polA (W3119 vs P3478), Assay Type: Rec-assay, DNA effects (bacterial DNA repair), Assay Code: RE1T, Evaluation Type: Evaluation A (Pre-1980)): no conclusion
- mutagenic call (Species/Cell Type: Fischer rat embryo (RLV/1706) cells, Assay Type: Cell transformation, viral enhanced, Assay Code: CTR-, Evaluation Type: Evaluation A (Pre-1980)): inactive; negative
- mutagenic call (Species/Cell Type: Human diploid fibroblasts, Assay Type: Unscheduled DNA synthesis (UDS) in vitro, DNA effects, Assay Code: UDH+*, Activation: With metabolic activation, Evaluation Type: Evaluation A (Pre-1980)): active; positive
- mutagenic call (Species/Cell Type: Mouse (BALB/c-3T3) cells, Assay Type: Cell transformation, Assay Code: CTB-, Evaluation Type: Evaluation A (Pre-1980)): inactive; negative
- mutagenic call (Species/Cell Type: Mouse lymphoma (L5178Y) cells, Assay Type: Forward gene mutation at the thymidine kinase (TK) locus, chromosome aberrations, Assay Code: L51T, Evaluation Type: Evaluation A (Pre-1980)): no conclusion
- call [10]: no conclusion
- mutagenic call (Species/Cell Type: Nonhuman, Assay Type: Sister-chromatid exchange (SCE) in vitro, Assay Code: SC2T, Evaluation Type: Evaluation B (Post-1980)): no conclusion
- mutagenic call (Species/Cell Type: Nonhuman, Assay Type: Sister-chromatid exchange (SCE) in vivo, Assay Code: SC3+, Evaluation Type: Evaluation B (Post-1980)): active; positive
- mutagenic call (Species/Cell Type: Nonhuman, Assay Type: Sister-chromatid exchange (SCE) in vivo, Assay Code: SC3T, Evaluation Type: Evaluation A (Pre-1980)): no conclusion
- mutagenic call [8]: inactive; negative
- mutagenic call [12]: active; positive
- mutagenic call (Species/Cell Type: Syrian hamster embryo (SHE) cells, Assay Type: Cell transformation, clonal assay, Assay Code: CTC-, Evaluation Type: Evaluation A (Pre-1980)): inactive; negative

Compound: Cc1cc(Cl)ccc1N
- call [4]: active; positive

Compound: C1CCNCC1
- mutagenic call (Species/Cell Type: Salmonella typhimurium, Assay Type: Forward and reverse gene mutation, host-mediated assay, Assay Code: HMA-, Evaluation Type: Evaluation A (Pre-1980)): inactive; negative

Compound: O[C@H]1c2ccc3cc4ccccc4cc3c2[C@@H]2OC2[C@@H]1O (stereo partly specified)
- mutagenic call [13]: active; positive

Compound: Cc1cc(O)c2c(c1)C(=O)c1cc(OC3O[C@@H](C)[C@H](O)[C@@H](O)[C@H]3O)cc(O)c1C2=O (stereo partly specified)
- mutagenic call [12]: active; positive
